In patent US8299111B2, “Compounds which modulate the CB2 receptor” (Boehringer Ingelheim International GmbH, priority 2006, dated 2012):

The compounds below were run against T1, human CB2R (Homo sapiens, UniProt P34972) (assay: CB2R mediated modulation of cAMP synthesis). Details: found through the use of the above described assays (binding and cAMP); CHO cells expressing human CB2R, forskolin-stimulated cAMP.
T1 construct: host or cells: CHO cells
Assay type: cell-based
Summary of the method: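 EC50 values reflect inhibition of cAMP made in response to 10 uM forskolin (with 1 mM IBMX, 0.25% BSA) over 30 min at 37 °C in human CB2R-expressing CHO cells. The window runs from forskolin alone to 1 uM CP55940; curves fitted with a four-parameter logistic model.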

T1 sequence (P34972 whole entry): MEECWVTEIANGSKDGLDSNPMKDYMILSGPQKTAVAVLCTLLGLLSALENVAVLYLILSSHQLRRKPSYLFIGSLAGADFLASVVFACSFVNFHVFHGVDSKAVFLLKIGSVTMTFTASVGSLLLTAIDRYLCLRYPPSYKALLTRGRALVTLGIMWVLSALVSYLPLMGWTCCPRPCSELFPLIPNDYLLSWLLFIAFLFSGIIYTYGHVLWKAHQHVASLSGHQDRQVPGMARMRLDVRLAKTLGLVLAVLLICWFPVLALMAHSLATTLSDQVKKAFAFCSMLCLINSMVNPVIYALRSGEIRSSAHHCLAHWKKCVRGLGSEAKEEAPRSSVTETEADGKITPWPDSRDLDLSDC

Question: `CC(C)(C)c1cc(NC(=O)C(C)(C)S(=O)(=O)c2ccc(Cl)nc2)no1` [N-(5-tert-Butyl-isoxazol-3-yl)-2-(6-chloro-pyridine-3-sulfonyl)-2-methyl-propionamide] was tested. Which agonistic activity did it give?
Answer: Its agonistic activity is “agonistic activity”.

Question: For `COc1ccc(S(=O)(=O)C(C)(C)C(=O)Nc2cc(C(C)(C)C)on2)cn1` [N-(5-tert-Butyl-isoxazol-3-yl)-2-(6-methoxy-pyridine-3-sulfonyl)-2-methyl-propionamide], which agonistic activity is on record?
Answer: The agonistic activity was “agonistic activity”.

Question: With `CC(C)(C)c1cc(NC(=O)C(C)(C)S(=O)(=O)c2cccc(OC(F)(F)F)c2)no1` [N-(5-tert-Butyl-isoxazol-3-yl)-2-methyl-2-(3-trifluoromethoxy-benzenesulfonyl)-propionamide] as the compound, how does the agonistic activity read?
Answer: Its agonistic activity is “agonistic activity”.

Question: For `CC(C)(C)c1cc(NC(=O)C(C)(C)S(=O)(=O)c2cccc(C(F)(F)F)c2)no1` [N-(5-tert-Butyl-isoxazol-3-yl)-2-methyl-2-(3-trifluoromethyl-benzenesulfonyl)-propionamide], which agonistic activity is on record?
Answer: The agonistic activity was “agonistic activity”.

Question: Which agonistic activity does the source give for `CC(C)(C)c1cc(NC(=O)C(C)(C)S(=O)(=O)c2ccc(C(F)(F)F)cc2)no1` [N-(5-tert-Butyl-isoxazol-3-yl)-2-methyl-2-(4-trifluoromethyl-benzenesulfonyl)-propionamide] here?
Answer: Its agonistic activity is “agonistic activity”.

Question: `CC(C)(C)c1cc(NC(=O)C(C)(C)S(=O)(=O)c2ccc(C(F)(F)F)cn2)no1` [N-(5-tert-Butyl-isoxazol-3-yl)-2-methyl-2-(5-trifluoromethyl-pyridine-2-sulfonyl)-propionamide] was tested. Which agonistic activity did it give?
Answer: The agonistic activity was “agonistic activity”.

Question: Which agonistic activity does the source give for `Cc1ccc(S(=O)(=O)C(C)(C)C(=O)Nc2cc(C(C)(C)C)on2)cn1` [N-(5-tert-Butyl-isoxazol-3-yl)-2-methyl-2-(6-methyl-pyridine-3-sulfonyl)-propionamide] here?
Answer: Its agonistic activity is “agonistic activity”.

Question: `CC(C)(C)c1cc(NC(=O)C(C)(C)S(=O)(=O)c2ccc(C(F)(F)F)nc2)no1` [N-(5-tert-Butyl-isoxazol-3-yl)-2-methyl-2-(6-trifluoromethyl-pyridine-3-sulfonyl)-propionamide] was tested. Which agonistic activity did it give?
Answer: Its agonistic activity is “agonistic activity”.

Question: Which agonistic activity does the source give for `CC(C)(C)c1cc(NC(=O)C(C)(C)S(=O)(=O)c2ccc3ccccc3c2)no1` [N-(5-tert-Butyl-isoxazol-3-yl)-2-methyl-2-(naphthalene-2-sulfonyl)-propionamide] here?
Answer: The agonistic activity was “agonistic activity”.

Question: Which agonistic activity does the source give for `CC(C)(C)c1cc(NC(=O)C(C)(C)S(=O)(=O)c2ccccn2)no1` [N-(5-tert-Butyl-isoxazol-3-yl)-2-methyl-2-(pyridine-2-sulfonyl)-propionamide] here?
Answer: Its agonistic activity is “agonistic activity”.

Question: Which agonistic activity does the source give for `CC(C)(C)c1cc(NC(=O)C(C)(C)S(=O)(=O)c2cccnc2)no1` [N-(5-tert-Butyl-isoxazol-3-yl)-2-methyl-2-(pyridine-3-sulfonyl)-propionamide] here?
Answer: Its agonistic activity is “agonistic activity”.

Question: `CC(C)(C)c1cc(NC(=O)C(C)(C)S(=O)(=O)c2cccc3cccnc23)no1` [N-(5-tert-Butyl-isoxazol-3-yl)-2-methyl-2-(quinoline-8-sulfonyl)-propionamide] was tested. Which agonistic activity did it give?
Answer: The agonistic activity was “agonistic activity”.

Question: `CC(C)(C)c1cc(NC(=O)C(C)(C)S(=O)(=O)c2cccs2)no1` [N-(5-tert-Butyl-isoxazol-3-yl)-2-methyl-2-(thiophene-2-sulfonyl)-propionamide] was tested. Which agonistic activity did it give?
Answer: Its agonistic activity is “agonistic activity”.

Question: `CC(C)(C)c1cc(NC(=O)C(C)(C)S(=O)(=O)c2ccsc2)no1` [N-(5-tert-Butyl-isoxazol-3-yl)-2-methyl-2-(thiophene-3-sulfonyl)-propionamide] was tested. Which agonistic activity did it give?
Answer: The agonistic activity was “agonistic activity”.

Question: How did the agonistic activity turn out when `Cc1ccc(S(=O)(=O)C(C)(C)C(=O)Nc2cc(C(C)(C)C)on2)cc1` [N-(5-tert-Butyl-isoxazol-3-yl)-2-methyl-2-(toluene-4-sulfonyl)-propionamide] was run?
Answer: The agonistic activity was “agonistic activity”.

Question: Which agonistic activity does the source give for `CC(C)C(C(=O)Nc1cc(C(C)(C)C)on1)S(=O)(=O)c1ccc(C(F)(F)F)cc1` (centres unmarked) [N-(5-tert-Butyl-isoxazol-3-yl)-3-methyl-2-(4-trifluoromethyl-benzenesulfonyl)-butyramide] here?
Answer: Its agonistic activity is “agonistic activity”.

Question: How did the agonistic activity turn out when `CC(C)C(C(=O)Nc1cc(C(C)(C)C)on1)S(=O)(=O)c1ccc(C(F)(F)F)cn1` (centres unmarked) [N-(5-tert-Butyl-isoxazol-3-yl)-3-methyl-2-(5-trifluoromethyl-pyridine-2-sulfonyl)-butyramide] was run?
Answer: Its agonistic activity is “agonistic activity”.

Question: For `CC(C)(C)c1cnc(NC(=O)C(C)(C)S(=O)(=O)c2ccc(Cl)cc2)s1` [N-(5-tert-Butyl-thiazol-2-yl)-2-(4-chloro-benzenesulfonyl)-2-methyl-propionamide], which agonistic activity is on record?
Answer: Its agonistic activity is “agonistic activity”.

Question: For `CC(C)(C)c1nnc(NC(=O)C(C)(C)S(=O)(=O)c2ccc(F)cc2F)s1` [N-(5-tert-butyl-1,3,4-thiadiazol-2-yl)-2-[(2,4-difluorophenyl)sulfonyl]-2-methylpropanamide], which agonistic activity is on record?
Answer: The agonistic activity was “agonistic activity”.

Question: Which agonistic activity does the source give for `CC(C)(C)c1nnc(NC(=O)C(C)(C)S(=O)(=O)c2ccc(Cl)cc2F)s1` [N-(5-tert-butyl-1,3,4-thiadiazol-2-yl)-2-[(4-chloro-2-fluorophenyl)sulfonyl]-2-methylpropanamide] here?
Answer: The agonistic activity was “agonistic activity”.

Question: For `CC(C)(C)c1nnc(NC(=O)C(C)(C)S(=O)(=O)c2ccc(C(F)(F)F)nc2)s1` [N-(5-tert-butyl-1,3,4-thiadiazol-2-yl)-2-methyl-2-{[6-(trifluoromethyl)pyridin-3-yl]sulfonyl}propanamide], which agonistic activity is on record?
Answer: The agonistic activity was “agonistic activity”.

Question: `CC(C)(C(=O)Nc1noc2ccccc12)S(=O)(=O)c1ccc(Cl)cc1` [N-Benzo[d]isoxazol-3-yl-2-(4-chloro-benzenesulfonyl)-2-methyl-propionamide] was tested. Which agonistic activity did it give?
Answer: Its agonistic activity is “agonistic activity”.

Question: `CC(C)(C(=O)Nc1nc2ccccc2o1)S(=O)(=O)c1ccc(Cl)cc1` [N-Benzooxazol-2-yl-2-(4-chloro-benzenesulfonyl)-2-methyl-propionamide] was tested. Which agonistic activity did it give?
Answer: Its agonistic activity is “agonistic activity”.

Question: For `CC(C)(C(=O)Nc1nc2ccccc2s1)S(=O)(=O)c1ccc(Cl)cc1` [N-Benzothiazol-2-yl-2-(4-chloro-benzenesulfonyl)-2-methyl-propionamide], which agonistic activity is on record?
Answer: Its agonistic activity is “agonistic activity”.

Question: Which agonistic activity does the source give for `COc1ccc(S(=O)(=O)C(C)(C)C(=O)Nc2cc(CC(C)(C)C)no2)cc1` [N-[3-(2,2-dimethylpropyl)isoxazol-5-yl]-2-[(4-methoxyphenyl)sulfonyl]-2-methylpropanamide] here?
Answer: Its agonistic activity is “agonistic activity”.

Question: With `CC(C)(C)Cc1cc(NC(=O)C(C)(C)S(=O)(=O)c2ccc(S(C)(=O)=O)cc2)on1` [N-[3-(2,2-dimethylpropyl)isoxazol-5-yl]-2-methyl-2-{[4-(methylsulfonyl)phenyl]sulfonyl}propanamide] as the compound, how does the agonistic activity read?
Answer: Its agonistic activity is “agonistic activity”.

Question: Which agonistic activity does the source give for `CC(C)(C)Cc1cc(NC(=O)C(C)(C)S(=O)(=O)c2ccc(C(F)(F)F)nc2)on1` [N-[3-(2,2-dimethylpropyl)isoxazol-5-yl]-2-methyl-2-{[6-(trifluoromethyl)pyridin-3-yl]sulfonyl}propanamide] here?
Answer: Its agonistic activity is “agonistic activity”.

Question: How did the agonistic activity turn out when `CC(C)(C(=O)Nc1nc(-c2ccc(Cl)cc2)cs1)S(=O)(=O)c1ccc(F)cc1F` [N-[4-(4-Chloro-phenyl)-thiazol-2-yl]-2-(2,4-difluoro-benzenesulfonyl)-2-methyl-propionamide] was run?
Answer: The agonistic activity was “agonistic activity”.

Question: With `COc1ccc(S(=O)(=O)C(C)(C)C(=O)Nc2nc(-c3ccc(Cl)cc3)cs2)cc1` [N-[4-(4-Chloro-phenyl)-thiazol-2-yl]-2-(4-methoxy-benzenesulfonyl)-2-methyl-propionamide] as the compound, how does the agonistic activity read?
Answer: Its agonistic activity is “agonistic activity”.

Question: `Cc1ccc(S(=O)(=O)C(C)(C)C(=O)Nc2nc(-c3ccc(Cl)cc3)cs2)cc1` [N-[4-(4-Chloro-phenyl)-thiazol-2-yl]-2-methyl-2-(toluene-4-sulfonyl)-propionamide] was tested. Which agonistic activity did it give?
Answer: Its agonistic activity is “agonistic activity”.

Question: Which agonistic activity does the source give for `CC(C)(C(=O)Nc1nc(-c2ccc(Cl)cc2)cs1)S(=O)(=O)c1ccc(S(C)(=O)=O)cc1` [N-[4-(4-chlorophenyl)-1,3-thiazol-2-yl]-2-methyl-2-{[4-(methylsulfonyl)phenyl]sulfonyl}propanamide] here?
Answer: Its agonistic activity is “agonistic activity”.

Question: For `CC(C)(C(=O)Nc1nc(-c2ccc(Cl)cc2)cs1)S(=O)(=O)c1ccc(C(F)(F)F)nc1` [N-[4-(4-chlorophenyl)-1,3-thiazol-2-yl]-2-methyl-2-{[6-(trifluoromethyl)pyridin-3-yl]sulfonyl}propanamide], which agonistic activity is on record?
Answer: Its agonistic activity is “agonistic activity”.

Question: Which agonistic activity does the source give for `CC(C)(C(=O)Nc1ncc(-c2ccc(F)c(F)c2)s1)S(=O)(=O)c1ccc(F)cc1` [N-[5-(3,4-Difluoro-phenyl)-thiazol-2-yl]-2-(4-fluoro-benzenesulfonyl)-2-methyl-propionamide] here?
Answer: Its agonistic activity is “agonistic activity”.

Question: For `CC(C)(C(=O)Nc1cc2ccccc2cn1)S(=O)(=O)c1ccc(C(F)(F)F)nc1` [N-isoquinolin-3-yl-2-methyl-2-{[6-(trifluoromethyl)pyridin-3-yl]sulfonyl}propanamide], which agonistic activity is on record?
Answer: The agonistic activity was “agonistic activity”.

Question: `CCOC(=O)c1sc(NC(=O)C(C)(C)S(=O)(=O)c2ccc(Cl)cc2)nc1C(F)(F)F` [ethyl 2-({2-[(4-chlorophenyl)sulfonyl]-2-methylpropanoyl}amino)-4-(trifluoromethyl)-1,3-thiazole-5-carboxylate] was tested. Which agonistic activity did it give?
Answer: Its agonistic activity is “agonistic activity”.
